In patent US6215002A, “Pyrrolopyrrolone derivatives as inhibitors of neutrophil elastase” (priority 1996, dated 2001):
Where a name gives a salt, the structure may show the parent alone.

Target: T1, human neutrophil elastase (Homo sapiens, UniProt P08246)
T1 sequence (P08246 30-267): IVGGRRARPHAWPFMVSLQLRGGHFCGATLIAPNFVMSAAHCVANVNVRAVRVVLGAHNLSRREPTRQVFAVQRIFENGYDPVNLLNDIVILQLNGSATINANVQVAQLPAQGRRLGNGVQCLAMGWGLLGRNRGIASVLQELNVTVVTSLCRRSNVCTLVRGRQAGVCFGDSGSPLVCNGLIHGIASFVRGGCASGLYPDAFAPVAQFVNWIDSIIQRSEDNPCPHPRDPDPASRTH
Assay: In vitro assay of human neutrophil elastase (HNE)
Format: biochemical
Settings: 118 nM purified human neutrophil elastase, pH 8.6, 15 min incubation at 30° C., MeO-succinyl-alanyl-alanyl-prolyl-valyl-p-nitroanilide substrate; read-out: HNE IC50
Protocol: In Vitro Assays of Human Neutrophil Elastase
118 nM purified human neutrophil elastase
Suitable concentrations of compound under test diluted with water from a 10 mM stock solution in dimethylsulphoxide. Values above are final concentrations after the addition of substrate solution (see below).
The mixture above is incubated for fifteen minutes at 30° C. at which time the remaining elastase activity is measured for 10 minutes in a BioTek 340i plate-reader, after the addition of 0.6 mM MeO-succinyl-alanyl-alanyl-prolyl-valyl-p-nitroanilide. The rate of increase in absorbance at 405 nm is proportional to elastase activity. Enzyme activity is plotted against concentration of inhibitor and an IC50 determined using curve fitting software.
1. The compounds were tested in the in vitro elastase test described earlier in the description.

| SMILES | IC50 |
| --- | --- |
| CC(C)[C@H]1C(=O)N(S(C)(=O)=O)[C@H]2CCN(S(=O)(=O)c3ccc(S(C)(=O)=O)cc3)[C@H]12 (relative stereo) [Example 227, rel-(3R,3aR,6aS)-3-Isopropyl-1-methanesulfonyl-4-(4-methanesulfonyl-benzenesulfonyl)-hexahydro-pyrrolo[3,2-b]pyrrol-2-one] | 118 nM |
| CCC[C@H]1C(=O)N(S(C)(=O)=O)[C@H]2CCN(S(=O)(=O)c3ccc(CN4CCCCC4)cc3)[C@H]12 (relative stereo) [Example 194, rel-(3R,3aR,6aS)-1-Methanesulfonyl-4-(4-piperidin-1-ylmethyl-benzenesulfonyl)-3-propyl-hexahydro-pyrrolo[3,2-b]pyrrol-2-one hydrochloride] | 60 nM |
| CCC[C@H]1C(=O)N(S(C)(=O)=O)[C@H]2CCN(C(=O)c3ccc(S(C)(=O)=O)cc3)[C@H]12 (relative stereo) [Example 245, rel-(3R,3aR,6aS)-1-Methanesulfonyl-4-(4-methanesulfonyl-benzoyl)-3-propyl-hexahydro-pyrrolo[3,2-b]pyrrol-2-one] | 9 nM |
| CCC[C@H]1C(=O)N(S(=O)(=O)/C=C/c2ccccc2)[C@H]2CCN(S(=O)(=O)Cc3ccccc3)[C@H]12 (relative stereo) [Example 33, rel-(3R,3aR,6aS)-1-(2-Phenyl-(E)-ethenesulfonyl)-4-phenylmethanesulfonyl-3-propyl-hexahydro-pyrrolo[3,2-b]pyrrol-2-one] | 458 nM |
| CCC[C@H]1C(=O)N(S(C)(=O)=O)[C@H]2CCN(S(=O)(=O)c3ccc(C(=O)NC)cc3)[C@H]12 (relative stereo) [Example 124, rel-(3aS,6R,6aR)-4-(4-Methanesulfonyl-5-oxo-6-hexahydro-pyrrolo[3,2-b]pyrrole-1-sulfonyl)-N-methyl-benzamide] | 8 nM |
| C=CC[C@H]1C(=O)N(S(=O)(=O)c2cccc([N+](=O)[O-])c2)[C@H]2CCN(C(=O)OCc3ccccc3)[C@H]12 (relative stereo) [Example 38, rel-(3aS,6R,6aR)-6-Allyl-4-(3-nitro-benzenesulfonyl)-5-oxo-hexahydro-pyrrolo[3,2-b]pyrrole-1-carboxylic acid benzyl ester] | 205 nM |
| CCC[C@H]1C(=O)N(S(=O)(=O)c2c(C)noc2C)[C@H]2CCN(C(=O)CCN3CCCCC3)[C@H]12 (relative stereo) [Example 170, rel-(3R,3aR,6aS)-1-(3,5-Dimethyl-isoxazole-4-sulfonyl)-4-(3-piperidin-1-yl-propionyl)-3-propyl-hexahydro-pyrrol[3,2-b]pyrrol-2-one DL-tartrate] | 180 nM |
| CCC[C@H]1C(=O)N(S(C)(=O)=O)[C@H]2CCN(C(=O)CCN3CCCC3)[C@H]12 (relative stereo) [Example 93, rel-(3R,3aR,6aS)-1-Methanesulfonyl-3-propyl-4-(3-pyrrolidin-1-yl-propionyl)-hexahydro-pyrrolo[3,2-b]pyrrol-2-one hydrochloride] | 89 nM |
| CC[C@H]1C(=O)N(S(=O)(=O)c2ccc3ccccc3c2)[C@H]2CCN(C(=O)OCc3ccccc3)[C@H]12 (relative stereo) [Example 4, rel-(3aS,6R,6aR)-6-Ethyl-4-(naphthalene-2-sulfonyl)-5-oxo-hexahydro-pyrrolo[3,2-b]pyrrole-1-carboxylic acid benzyl ester] | 134 nM |
| CC[C@H]1C(=O)N(S(=O)(=O)c2ccc3ccccc3c2)[C@H]2CCN(C(=O)CCN3CCCCC3)[C@H]12 (relative stereo) [Example 5, rel-(3R,3aR,6aS)-3-Ethyl-1-(naphthalene-2-sulfonyl)-4-(3-piperidin-1-yl-propionyl)-hexahydro-pyrrolo[3,2-b]pyrrol-2-one hydrochloride] | 205 nM |
| CCC[C@H]1C(=O)N(S(=O)(=O)c2cccc3cnccc23)[C@H]2CCN(S(C)(=O)=O)[C@H]12 (relative stereo) [Example 51, rel-(3R,3aR,6aS)-1-(Isoquinoline-5-sulfonyl)-4-methanesulfonyl-3-propyl-hexahydro-pyrrolo[3,2-b]pyrrol-2-one] | 55 nM |
| CCC[C@H]1C(=O)N(S(C)(=O)=O)[C@H]2CCN(C(=O)c3ccc[nH]3)[C@H]12 (relative stereo) [Example 242, rel-(3R,3aR,6aS)-1-Methanesulfonyl-3-propyl-4-(1H-pyrrole-2-carbonyl)-hexahydro-pyrrolo[3,2-b]pyrrol-2-one] | 22 nM |
| C=CC[C@H]1C(=O)N(S(=O)(=O)c2cccc3ccccc23)[C@H]2CCN(C(=O)OCc3ccccc3)[C@H]12 (relative stereo) [Example 15, rel-(3sS,6R,6aR)-6-Allyl-4-(naphthalene-1-sulfonyl)-5-oxo-hexahydro-pyrrolo[3,2-b]pyrrole-1-carboxylic acid benzyl ester] | 10 nM |
| CCC[C@H]1C(=O)N(S(C)(=O)=O)[C@H]2CCN(C(=O)CCN(C)C)[C@H]12 (relative stereo) [Example 90, rel-(3R,3aR,6aS)-4-(3-Dimethylamino-propionyl)-1-methanesulfonyl-3-propyl-hexahydro-pyrrolo[3,2-b]pyrrol-2-one hydrochloride] | 305 nM |
| CCC[C@H]1C(=O)N(S(=O)(=O)c2ccc3ccccc3c2)[C@H]2CCN(C(=O)CCc3ccccn3)[C@H]12 (relative stereo) [Example 48, rel-(3R,3aR,6aS)-1-(Naphthalene-2-sulfonyl)-3-propyl-4-(3-pyridin-2yl-propionyl)-hexahydro-pyrrolo[3,2-b]pyrrol-2-one] | 122 nM |
| CCC[C@H]1C(=O)N(S(C)(=O)=O)[C@H]2CCN(S(=O)(=O)c3ccccc3)[C@H]12 (relative stereo) [Example 219, rel-(3R,3aR,6aS)-4-Benzenesulfonyl-1-methanesulfonyl-3-propyl-hexahydro-pyrrolo[3,2-]pyrrol-2-one] | 10 nM |
| CC(C)[C@H]1C(=O)N(S(C)(=O)=O)[C@H]2CCN(S(=O)(=O)c3ccc([N+](=O)[O-])cc3)[C@H]12 (relative stereo) [Example 229, rel-(3R,3aR,6aS)-3-Isopropyl-1-methanesulfonyl-4-(4-nitro-benzenesulfonyl)-hexahydro-pyrrolo[3,2-b]pyrrol-2-one] | 167 nM |
| CCC[C@H]1C(=O)N(S(=O)(=O)c2cccnc2)[C@H]2CCN(C(=O)CCN3CCCCC3)[C@H]12 (relative stereo) [Example 172, rel-(3R,3aR,6aS)-4-(3-Piperidin-1-yl-propionyl)-3-propyl-1-(pyridine-3-sulfonyl)-hexahydro-pyrrolo[3,2-b]pyrrol-2-one dihydrochloride] | 69 nM |
| CS[C@H]1C(=O)N(S(C)(=O)=O)[C@H]2CCN(C(=O)OCc3ccccc3)[C@H]12 (relative stereo) [Example 157] | 209 nM |
| CCC[C@H]1C(=O)N(S(=O)(=O)c2ccc3ccccc3c2)[C@H]2CCN(C(=O)CN3CCCCC3)[C@H]12 (relative stereo) [Example 3, rel-(3R,3aR,6aS)-1-(Naphthalene-2-sulfonyl)-4-(2-piperidin-1-yl-acetyl)-3-propyl-hexahydro-pyrrolo[3,2-b]pyrrol-2-one] | 205 nM |
| CCC[C@H]1C(=O)N(S(=O)(=O)c2cccc3cccnc23)[C@H]2CCN(S(C)(=O)=O)[C@H]12 (relative stereo) [Example 52, rel-(3R,3aR,6aS)-4-Methanesulfonyl-3-propyl-1-(quinoline-8-sulfonyl)-hexahydro-pyrrolo[3,2-b]pyrrol-2-one] | 222 nM |
| CCC[C@H]1C(=O)N(S(C)(=O)=O)[C@H]2CCN(C(=O)CCCCCCCCCN3CCN(C)CC3)[C@H]12 (relative stereo) [Example 69, rel-(3R,3aR,6aS)-1-Methanesulfonyl-4-[10-(4-methyl-piperazin-1-yl)-decanoyl]-3-propyl-hexahydro-pyrrolo[3,2-b]pyrrol-2-one dihydrochloride] | 80 nM |
| CCC[C@H]1C(=O)N(S(C)(=O)=O)[C@H]2CCN(C(=O)CCCCCN3CCCCCC3)[C@H]12 [Example 115, (3R,3aR,6aS)-4-(6-Azepin-1-yl-hexanoyl)-1-methanesulfonyl-3-propyl-hexahydro-pyrrolo[3,2-b]pyrrol-2-one hydrochloride] | 314 nM |
| CCC[C@H]1C(=O)N(S(C)(=O)=O)[C@H]2CCN(C(=O)c3ccncc3)[C@H]12 (relative stereo) [Example 246, rel-(3R,3aR,6aS)-1-Methanesulfonyl-3-propyl-4-(pyridine-4-carbonyl)-hexahydro-pyrrolo[3,2-b]pyrrol-2-one] | 21 nM |
| CCC[C@H]1C(=O)N(S(C)(=O)=O)[C@H]2CCN(S(=O)(=O)c3ccc(N)cc3)[C@H]12 (relative stereo) [Example 234, rel-(3R,3aR,6aS)-4-(4-Amino-benzenesulfonyl)-1-methanesulfonyl-3-propyl-hexahydro-pyrrolo[3,2-b]pyrrol-2-one] | 11 nM |
| C=CC[C@H]1C(=O)N(S(=O)(=O)c2ccc3c(c2)CCCC3)[C@H]2CCN(C(=O)OCc3ccccc3)[C@H]12 (relative stereo) [Example 20, rel-(3aS,6R,6aR)-6-Allyl-5-oxo-4-(5,6,7,8-tetrahydro-naphthalene-2-sulfonyl)-hexahydro-pyrrolo[3,2-b]pyrrole-1-carboxylic acid benzyl ester] | 57 nM |
